Data taken from patent publication US9434711B2 (Janssen Pharmaceutica, NV, priority 2007, dated 2016).

Target: canine TRPM8 (Canis lupus familiaris, UniProt Q1A7N1)
Experiment: In Vitro Canine TRPM8 Functional Assay (Ca2+ fluorescence, icilin activation)
Assay type: cell-based
Conditions: for IC50: HEK293 cells stably expressing canine TRPM8, icilin activation, eight-point dose-response, read-out: IC50; for inhibition at 0.2 µM / % Inh @ 0.2 (μM): compound at 0.2 μM, canine TRPM8, icilin activation; for inhibition at 0.2 µM: read-out: % Inh @ 0.2
Method in brief: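 Eight-point dose-response curves, each point averaging quadruplicate wells, gave EC50 or IC50. Canine TRPM8-expressing HEK293 cells, dye-loaded (Calcium 3), were pre-exposed 5 min to compound, then challenged with icilin at roughly EC80; intracellular Ca2+ read by FLIPR or FDSS fluorescence.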

Chain of canine TRPM8 (Q1A7N1 1-1104): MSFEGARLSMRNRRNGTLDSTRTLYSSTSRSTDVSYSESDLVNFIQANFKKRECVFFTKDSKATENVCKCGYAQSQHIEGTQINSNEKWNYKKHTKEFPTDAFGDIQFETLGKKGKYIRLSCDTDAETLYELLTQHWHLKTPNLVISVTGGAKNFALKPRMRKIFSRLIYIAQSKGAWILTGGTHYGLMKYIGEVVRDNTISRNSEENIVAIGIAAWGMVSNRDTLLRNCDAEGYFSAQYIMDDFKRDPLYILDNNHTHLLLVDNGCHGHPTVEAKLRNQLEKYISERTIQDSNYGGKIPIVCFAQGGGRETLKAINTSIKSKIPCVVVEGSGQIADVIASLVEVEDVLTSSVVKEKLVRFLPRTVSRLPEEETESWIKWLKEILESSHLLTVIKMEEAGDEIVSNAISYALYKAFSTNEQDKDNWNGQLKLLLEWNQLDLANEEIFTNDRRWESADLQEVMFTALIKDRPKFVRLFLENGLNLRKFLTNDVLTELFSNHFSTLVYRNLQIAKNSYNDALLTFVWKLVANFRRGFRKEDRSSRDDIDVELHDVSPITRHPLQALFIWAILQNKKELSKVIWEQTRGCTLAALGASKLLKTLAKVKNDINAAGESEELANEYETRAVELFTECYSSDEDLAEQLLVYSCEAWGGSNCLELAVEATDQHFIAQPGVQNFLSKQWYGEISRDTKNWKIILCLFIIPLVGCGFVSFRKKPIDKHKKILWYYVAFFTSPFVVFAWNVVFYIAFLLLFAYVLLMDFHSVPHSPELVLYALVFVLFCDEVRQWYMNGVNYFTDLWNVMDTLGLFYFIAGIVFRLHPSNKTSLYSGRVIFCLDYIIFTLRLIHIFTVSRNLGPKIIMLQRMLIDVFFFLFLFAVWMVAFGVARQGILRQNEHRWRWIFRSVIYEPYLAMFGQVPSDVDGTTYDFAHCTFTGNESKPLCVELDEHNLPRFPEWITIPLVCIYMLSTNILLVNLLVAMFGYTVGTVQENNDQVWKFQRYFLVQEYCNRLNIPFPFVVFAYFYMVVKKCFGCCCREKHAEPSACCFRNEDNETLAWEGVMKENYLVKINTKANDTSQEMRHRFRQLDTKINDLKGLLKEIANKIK

Structure (SMILES) | IC50 [nM] | inhibition at 0.2 µM [%] | % Inh @ 0.2 (μM) [%]
Cc1c(N(CCC(F)(F)F)S(=O)(=O)c2ccccc2)sc2ccccc12 [Compound 615, N-(3-Methyl-benzo[b]thiophen-2-yl)-N-(3,3,3-trifluoro-propyl)-benzenesulfonamide] | 7.3 | 101 | 
Cc1c(N(CCCC(F)(F)F)S(=O)(=O)c2ccccc2)sc2ccccc12 [Compound 616, N-(3-Methyl-benzo[b]thiophen-2-yl)-N-(4,4,4-trifluoro-butyl)-benzenesulfonamide] | 12.8 | 101 | 
Cc1c(N(CCCCC(F)(F)F)S(=O)(=O)c2ccccc2)sc2ccccc12 [Compound 617, N-(3-Methyl-benzo[b]thiophen-2-yl)-N-(5,5,5-trifluoro-pentyl)-benzenesulfonamide] | 7.4 | 101 | 
CC1=C(N(CCC2CC2)S(=O)(=O)c2ccccc2)S(=O)(=O)c2ccccc21 [Compound 618, N-(2-Cyclopropyl-ethyl)-N-(3-methyl-1,1-dioxo-benzo[b]thiophen-2-yl)-benzenesulfonamide] | 10.4 | 101 | 
CC1=C(N(CCC(F)(F)F)S(=O)(=O)c2ccccc2)S(=O)(=O)c2ccccc21 [Compound 619, N-(3-Methyl-1,1-dioxo-benzo[b]thiophen-2-yl)-N-(3,3,3-trifluoro-propyl)-benzenesulfonamide] | 39.8 | 101 | 
CC1=C(N(CCCC(F)(F)F)S(=O)(=O)c2ccccc2)S(=O)(=O)c2ccccc21 [Compound 620, N-(3-Methyl-1,1-dioxo-benzo[b]thiophen-2-yl)-N-(4,4,4-trifluoro-butyl)-benzenesulfonamide] | 23.4 | 101 | 
CC1=C(N(CCCCC(F)(F)F)S(=O)(=O)c2ccccc2)S(=O)(=O)c2ccccc21 [Compound 621, N-(3-Methyl-1,1-dioxo-benzo[b]thiophen-2-yl)-N-(5,5,5-trifluoro-pentyl)-benzenesulfonamide] | 11 | 101 | 
CC1=C(N(Cc2ccc(F)c(C(F)(F)F)c2)S(=O)(=O)c2ccccc2)S(=O)(=O)c2ccccc21 [Compound 622, N-(4-Fluoro-3-trifluoromethyl-benzyl)-N-(3-methyl-1,1-dioxo-benzo[b]thiophen-2-yl)-benzenesulfonamide] | 31.3 | 89 | 
Cc1c(N(Cc2ccc(F)c(C(F)(F)F)c2)S(=O)(=O)c2ccc(C(=O)NS(C)(=O)=O)cc2)sc2ccccc12 [Compound 623, N-(3-Methyl-benzo[b]thiophen-2-yl)-N-(4-fluoro-3-trifluoromethyl-benzyl)-4-methanesulfonylaminocarbonyl-benzenesulfonamide] | 7 | 101 | 
O=S1NC(c2ccc(S(=O)(=O)N(CCC3CC3)c3sc4ccccc4c3Br)cc2)=NO1 (stereo not shown) [Compound 624, N-(3-Bromo-benzo[b]thiophen-2-yl)-N-(cyclopropyl-ethyl)-4-(3H-[1,2,3,5]oxathiadiazole-2-oxide)-benzenesulfonamide] | 13.4 |  | 103
O=S1NC(c2ccc(S(=O)(=O)N(CCC3CC3)c3sc4ccccc4c3Cl)cc2)=NO1 (stereo not shown) [Compound 625, N-(3-Chloro-benzo[b]thiophen-2-yl)-N-(cyclopropyl-ethyl)-4-(3H-[1,2,3,5]oxathiadiazole-2-oxide)-benzenesulfonamide] | 20.4 |  | 103
COC(=O)c1ccc(S(=O)(=O)N(CCCCC(F)(F)F)c2sc3ccccc3c2C)cc1 [Compound 631, N-(3-Methyl-benzo[b]thiophen-2-yl)-N-(5,5,5-trifluoro-pentyl)-4-carbomethoxy-benzenesulfonamide] | 26.3 | 103 | 
CC1=C(N(CCCCC(F)(F)F)S(=O)(=O)c2ccc(C(=O)O)cc2)S(=O)(=O)c2ccccc21 [Compound 633, N-(3-Methyl-1,1-dioxo-benzo[b]thiophen-2-yl)-N-(5,5,5-trifluoro-pentyl)-4-carboxy-benzenesulfonamide] |  | 17 | 
CC1=C(N(Cc2ccc(F)c(C(F)(F)F)c2)S(=O)(=O)c2ccc(C(=O)O)cc2)S(=O)(=O)c2ccccc21 [Compound 634, N-(4-Fluoro-3-trifluoromethyl-benzyl)-N-(3-methyl-1,1-dioxo-benzo[b]thiophen-2-yl)-4-carboxy-benzenesulfonamide] |  | 55 | 

Continued, in another order:

IC50 [nM] | inhibition at 0.2 µM [%] | Structure (SMILES) | % Inh @ 0.2 (μM) [%]
53.7 | 97 | O=c1[nH]c(-c2ccc(S(=O)(=O)N(CCC3CC3)c3cc4ccccc4s3)cc2)no1 [Compound 612, N-(Benzo[b]thiophen-2-yl)-N-(cyclopropyl-ethyl)-4-(5-oxo-4,5-dihydro-[1,2,4]oxadiazol-3-yl)-benzenesulfonamide] | 
6.6 | 101 | Cc1c(N(CCC2CC2)S(=O)(=O)c2ccc(-c3noc(=O)[nH]3)cc2)sc2ccccc12 [Compound 613, N-(3-Methyl-benzo[b]thiophen-2-yl)-N-(cyclopropyl-ethyl)-4-(5-oxo-4,5-dihydro-[1,2,4]oxadiazol-3-yl)-benzenesulfonamide] | 
7.4 | 101 | Cc1c(N(CCC2CC2)S(=O)(=O)c2ccccc2)sc2ccccc12 [Compound 614, N-(2-Cyclopropyl-ethyl)-N-(3-methyl-benzo[b]thiophen-2-yl)-benzenesulfonamide] | 
7.4 | 103 | O=c1[nH]c(-c2ccc(S(=O)(=O)N(CCC3CC3)c3sc4ccccc4c3Br)cc2)no1 [Compound 626, N-(3-Bromo-benzo[b]thiophen-2-yl)-N-(cyclopropyl-ethyl)-4-(5-oxo-4,5-dihydro-[1,2,4]oxadiazol-3-yl)-benzenesulfonamide] | 
8.6 | 103 | O=c1[nH]c(-c2ccc(S(=O)(=O)N(CCC3CC3)c3sc4ccccc4c3Cl)cc2)no1 [Compound 627, N-(3-Chloro-benzo[b]thiophen-2-yl)-N-(cyclopropyl-ethyl)-4-(5-oxo-4,5-dihydro-[1,2,4]oxadiazol-3-yl)-benzenesulfonamide] | 
23.3 | 103 | COC(=O)c1ccc(S(=O)(=O)N(CCC2CC2)c2sc3ccccc3c2C)cc1 [Compound 628, N-(2-Cyclopropyl-ethyl)-N-(3-methyl-benzo[b]thiophen-2-yl)-4-carbomethoxy-benzenesulfonamide] | 
26.2 | 103 | COC(=O)c1ccc(S(=O)(=O)N(CCC(F)(F)F)c2sc3ccccc3c2C)cc1 [Compound 629, N-(3-Methyl-benzo[b]thiophen-2-yl)-N-(3,3,3-trifluoro-propyl)-4-carbomethoxy-benzenesulfonamide] | 
35.6 | 103 | COC(=O)c1ccc(S(=O)(=O)N(CCCC(F)(F)F)c2sc3ccccc3c2C)cc1 [Compound 630, N-(3-Methyl-benzo[b]thiophen-2-yl)-N-(4,4,4-trifluoro-butyl)-4-carbomethoxy-benzenesulfonamide] | 
 | 12 | CC1=C(N(CCC2CC2)S(=O)(=O)c2ccc(C(=O)O)cc2)S(=O)(=O)c2ccccc21 [Compound 632, N-(2-Cyclopropyl-ethyl)-N-(3-methyl-1,1-dioxo-benzo[b]thiophen-2-yl)-4-carboxy-benzenesulfonamide] | 
